Data published in US12427187B2, “Glucose-responsive insulin conjugates” (priority 2019, dated 2025).
Where two headings read alike, the source gives them in different places.

Molecular target: T1, Human macrophage mannose receptor 1 (MRC1) (Homo sapiens, UniProt P22897)
T1 sequence (P22897 19-1456): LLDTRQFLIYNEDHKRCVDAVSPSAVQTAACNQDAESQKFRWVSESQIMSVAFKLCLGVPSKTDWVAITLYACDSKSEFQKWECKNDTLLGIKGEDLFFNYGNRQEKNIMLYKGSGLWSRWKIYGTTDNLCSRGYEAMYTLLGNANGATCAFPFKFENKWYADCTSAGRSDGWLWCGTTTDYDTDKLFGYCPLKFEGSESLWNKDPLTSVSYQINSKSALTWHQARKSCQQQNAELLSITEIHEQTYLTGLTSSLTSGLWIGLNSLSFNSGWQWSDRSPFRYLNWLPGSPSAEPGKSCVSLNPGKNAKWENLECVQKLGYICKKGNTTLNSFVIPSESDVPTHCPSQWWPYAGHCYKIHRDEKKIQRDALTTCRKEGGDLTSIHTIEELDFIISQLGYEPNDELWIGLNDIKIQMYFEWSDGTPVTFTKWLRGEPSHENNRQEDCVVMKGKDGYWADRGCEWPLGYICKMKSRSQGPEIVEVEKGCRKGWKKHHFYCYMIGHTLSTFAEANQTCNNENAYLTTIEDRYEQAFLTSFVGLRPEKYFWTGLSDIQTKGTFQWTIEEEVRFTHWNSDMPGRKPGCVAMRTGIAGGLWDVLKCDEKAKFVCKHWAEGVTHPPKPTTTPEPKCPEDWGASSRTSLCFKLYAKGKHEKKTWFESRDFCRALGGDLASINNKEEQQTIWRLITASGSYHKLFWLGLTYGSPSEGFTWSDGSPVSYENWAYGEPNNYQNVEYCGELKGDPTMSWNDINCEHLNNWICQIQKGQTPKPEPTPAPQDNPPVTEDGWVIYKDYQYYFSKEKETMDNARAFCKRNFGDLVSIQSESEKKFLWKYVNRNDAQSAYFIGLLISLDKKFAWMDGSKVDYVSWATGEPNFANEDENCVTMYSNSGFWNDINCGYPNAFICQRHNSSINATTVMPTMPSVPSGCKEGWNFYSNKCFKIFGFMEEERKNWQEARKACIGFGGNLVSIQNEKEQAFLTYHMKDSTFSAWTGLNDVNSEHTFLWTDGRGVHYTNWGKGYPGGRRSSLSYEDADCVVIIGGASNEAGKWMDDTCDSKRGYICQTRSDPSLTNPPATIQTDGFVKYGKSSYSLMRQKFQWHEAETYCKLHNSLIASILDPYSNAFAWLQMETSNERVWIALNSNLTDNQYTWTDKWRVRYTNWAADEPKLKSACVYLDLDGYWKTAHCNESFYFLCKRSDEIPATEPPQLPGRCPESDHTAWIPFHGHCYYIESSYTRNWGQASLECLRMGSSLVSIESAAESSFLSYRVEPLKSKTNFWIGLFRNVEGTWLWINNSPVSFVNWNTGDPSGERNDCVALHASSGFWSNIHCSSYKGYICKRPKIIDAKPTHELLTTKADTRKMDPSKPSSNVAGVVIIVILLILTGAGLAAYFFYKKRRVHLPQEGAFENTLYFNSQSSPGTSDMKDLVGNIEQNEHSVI
Assay: MRC1 competition binding assay with Eu-mannosylated-BSA
Conditions: IP = inflection point, read-out: MRC1 Binding IP
Protocol: The competition binding assay for Human macrophage mannose receptor 1 (MRC1) utilized a ligand, mannosylated-BSA labeled with the DELFIA Eu-N1-ITC reagent, as reported in the literature. Assay was performed either in a 96-well plate with 100 μL well volume (Method E) or in a 384-well plate with 25 μL well volume (Method F). […] The antibody was incubated in the plate for 1 hr at rt with shaking. The plate was washed with wash buffer 3-5 times followed by addition of MRC1 (2 ng/μl final concentration) in PBS containing 1% stabilizer BSA. The plate was incubated at rt with gentle shaking for 1 hr. The plate was washed three times with wash buffer. The IOC molecules in 12.5 μL (or 50 μL depending on plate format) buffer at appropriate concentrations were added followed by 12.5 μL (or 50 μL) Eu-mannosylated-BSA (0.1 nm final concentration) in 50 mM Tris, pH 7.5 containing 100 mM NaCl, 5 mM CaCl2, 1 mM MgCl2 and 0.2% stabilizer BSA. The plate was incubated for 2 hrs at rt with shaking followed by washing three times with wash buffer.

CC(=O)[C@H](CCCCN)NC(=O)CCCCC(=O)NCC(=O)N[C@@H](CCC(=O)N[C@@H](CCC(=O)NCCCCCC(=O)N(CCOC1O[C@H](CO)[C@@H](O)[C@H](O)[C@@H]1O)CCO[C@H]1O[C@H](CO)[C@@H](O)[C@H](O)[C@@H]1O)C(=O)NCCCCCC(=O)N(CCOC1O[C@H](CO)[C@@H](O)[C@H](O)[C@@H]1O)CCOC1O[C@H](CO)[C@@H](O)[C@H](O)[C@@H]1O)C(=O)NCCCCCC(=O)NCCO[C@H]1O[C@H](CO[C@H]2O[C@H](CO)[C@@H](O)[C@H](O)[C@@H]2O)[C@@H](O)[C@H](O[C@H]2O[C@H](CO)[C@@H](O)[C@H](O)[C@@H]2O)[C@@H]1O (some centres unmarked) [IOC-27] was tested. Which IC50 (Method F: 384-well plate) did it give?
Its IC50 is 20.7 nM.

With CC(=O)[C@H](CCCCN)NC(=O)CCCCC(=O)N[C@@H](CCC(=O)NCCCC[C@@H](C(=O)NCCO[C@@H]1O[C@H](CO)[C@@H](O)[C@H](O)[C@H]1O)N(CC(=O)NCCO[C@@H]1O[C@H](CO)[C@@H](O)[C@H](O)[C@H]1O)CC(=O)NCCO[C@@H]1O[C@H](CO)[C@@H](O)[C@H](O)[C@H]1O)C(=O)N[C@@H](CCC(=O)NCCCC[C@@H](C(=O)NCCO[C@@H]1O[C@H](CO)[C@@H](O)[C@H](O)[C@H]1O)N(CC(=O)NCCO[C@@H]1O[C@H](CO)[C@@H](O)[C@H](O)[C@H]1O)CC(=O)NCCO[C@@H]1O[C@H](CO)[C@@H](O)[C@H](O)[C@H]1O)C(=O)N[C@@H](CC(C)C)C(=O)NCCCC[C@@H](C(=O)NCCO[C@@H]1O[C@H](CO)[C@@H](O)[C@H](O)[C@H]1O)N(CC(=O)NCCO[C@@H]1O[C@H](CO)[C@@H](O)[C@H](O)[C@H]1O)CC(=O)NCCO[C@@H]1O[C@H](CO)[C@@H](O)[C@H](O)[C@H]1O [IOC-57] as the compound, how does the IC50 (Method E: 96-well plate) read?
The IC50 was 1560 nM.

With CC(=O)[C@H](CCCCN)NC(=O)CCCCC(=O)N[C@@H](CCC(=O)N[C@@H](CCC(=O)N[C@@H](CCC(=O)NCCCCCC(=O)NCCO[C@H]1O[C@H](CO[C@H]2O[C@H](CO)[C@@H](O)[C@H](O)[C@@H]2O)[C@@H](O)[C@H](O[C@H]2O[C@H](CO)[C@@H](O)[C@H](O)[C@@H]2O)[C@@H]1O)C(=O)NCCCCCC(=O)NCCO[C@H]1O[C@H](CO[C@H]2O[C@H](CO)[C@@H](O)[C@H](O)[C@@H]2O)[C@@H](O)[C@H](O[C@H]2O[C@H](CO)[C@@H](O)[C@H](O)[C@@H]2O)[C@@H]1O)C(=O)NCCCCCC(=O)NCCO[C@H]1O[C@H](CO[C@H]2O[C@H](CO)[C@@H](O)[C@H](O)[C@@H]2O)[C@@H](O)[C@H](O[C@H]2O[C@H](CO)[C@@H](O)[C@H](O)[C@@H]2O)[C@@H]1O)C(=O)NCCCCCC(=O)NCCO[C@H]1O[C@H](CO[C@H]2O[C@H](CO)[C@@H](O)[C@H](O)[C@@H]2O)[C@@H](O)[C@H](O[C@H]2O[C@H](CO)[C@@H](O)[C@H](O)[C@@H]2O)[C@@H]1O [IOC-24] as the compound, how does the IC50 (Method E: 96-well plate) read?
The IC50 was 3.32 nM.

With CC(=O)[C@H](CCCCN)NC(=O)CCCCC(=O)NCC(=O)N[C@@H](CCC(=O)N[C@@H](CCC(=O)NCCCCCC(=O)NCCO[C@H]1O[C@H](CO[C@H]2O[C@H](CO)[C@@H](O)[C@H](O)[C@@H]2O)[C@@H](O)[C@H](O[C@H]2O[C@H](CO)[C@@H](O)[C@H](O)[C@@H]2O)[C@@H]1O)C(=O)NCCCCCC(=O)NCCOC1O[C@H](CO[C@H]2O[C@H](CO)[C@@H](O)[C@H](O)[C@@H]2O)[C@@H](O)[C@H](O[C@H]2O[C@H](CO)[C@@H](O)[C@H](O)[C@@H]2O)[C@@H]1O)C(=O)NCCCCCC(=O)NCCO[C@H]1O[C@H](CO[C@H]2O[C@H](CO)[C@@H](O)[C@H](O)[C@@H]2O)[C@@H](O)[C@H](O[C@H]2O[C@H](CO)[C@@H](O)[C@H](O)[C@@H]2O)[C@@H]1O (some centres unmarked) [IOC-5] as the compound, how does the IC50 (Method E: 96-well plate) read?
Its IC50 is 9.12 nM.

With CC(=O)[C@H](CCCCN)NC(=O)CCCCC(=O)NCC(=O)N[C@@H](CCC(=O)N[C@@H](CCC(=O)NCCCCCC(=O)N(CCOC1O[C@H](CO)[C@@H](O)[C@H](O)[C@@H]1O)CCOC1O[C@H](CO)[C@@H](O)[C@H](O)[C@@H]1O)C(=O)NCCCCCC(=O)N(CCOC1O[C@H](CO)[C@@H](O)[C@H](O)[C@@H]1O)CCOC1O[C@H](CO)[C@@H](O)[C@H](O)[C@@H]1O)C(=O)NCCCCCC(=O)NCCO[C@H]1O[C@H](CO[C@H]2O[C@H](CO)[C@@H](O)[C@H](O)[C@@H]2O)[C@@H](O)[C@H](O[C@H]2O[C@H](CO)[C@@H](O)[C@H](O)[C@@H]2O)[C@@H]1O (some centres unmarked) [IOC-38] as the compound, how does the IC50 (Method F: 384-well plate) read?
Its IC50 is 9.78 nM.
